The record followed here is patent publication US5470849A, “γ-turn peptidomimetics as fibrinogen antagonists” (SmithKline Beecham Corp., priority 1993, dated 1995).

For data set [1], the system named is dog platelets. In words: Inhibition of platelet aggregation (dog platelets, agonist-induced, Chrono-Log Lumi-Aggregometer). In kind it is cell-based. The conditions noted are these: Canis lupus familiaris, stimulated by ADP, between about. The protocol: (§1) Blood was collected (citrated to prevent coagulation) from, naive, adult mongrel dogs. Platelet rich plasma, PRP, was prepared by centrifugation at 150×g for 10 min at room temperature. Washed platelets were prepared by centrifuging PRP at 800×g for 10 min. The cell pellet thus obtained was washed twice in Tyrode's buffer (pH 6.5) without Ca^++ and resuspended in Tyrode's buffer (pH 7.4) containing 1.8 mM Ca^++ at 3×10^5 cells/mL. Peptides were added 3 min. prior to the agonist in all assays of platelet aggregation. Final agonist concentrations were 0.1 unit/mL thrombin and […] (Sigma). Aggregation was monitored in a Chrono-Log Lumi-Aggregometer. Light transmittance 5 min after addition of the agonist was used to calculate percent aggregation according to the formula % aggregation =[(90-CR)[…]]×100, where CR is the chart reading, 90 is the baseline, and 10 is the PRP blank reading. IC50 's were determined by plotting [% inhibition of aggregation] vs. [concentration of peptide]. Peptides were assayed at 200 μM and diluted sequentially by a factor of 2 to establish a suitable dose response curve.

The nature of data set [2]: Stability of the peptide to plasma proteases in platelet-rich plasma (3 h incubation prior to agonist). The conditions noted are these: up to 3 h. Format: in vitro ADME, dog. The protocol:
as §1
To assess the stability of the peptide to plasma proteases, the peptides were incubated for 3 h (rather than 3 min) in the PRP prior to addition of the agonist.

One may read the IC50 as the concentration at which inhibition is half-maximal. The low end stands for inhibition by little substance, the high end for a need for much substance. `CN(C(=O)c1ccccc1)[C@@H](CCCNC(=N)N)C(=O)NCC1=CC(CC(=O)O)C(=O)N(c2ccccc2)CC1` (stereo partly shown) [Example 1, 1-phenyl-2-oxo-3-carboxymethyl-5-[(N-benzoyl-N-methyl-arginylamino)methyl]-2,3,6,7-tetrahydro-1H-azepine] returned an IC50 in data set [1] of 500 to 1500 nM. Moreover, the “stability in platelet-rich plasma” value in data set [2] was “stable in platelet-rich plasma for up to 3 h”.

The compound `CC(=O)N(C)[C@@H](CCCNC(=N)N)C(=O)NCC1=CC(CC(=O)O)C(=O)N(c2ccccc2)CC1` (stereo partly shown) [Example 2, 1-phenyl-2-oxo-3-carboxymethyl-5-[acetyl-(N-methylarginyl)-aminomethyl]-2,3,6,7-tetrahydro-1H-azepine] showed an IC50 in data set [1] of 500 to 1500 nM. The “stability in platelet-rich plasma” value in data set [2] is “stable in platelet-rich plasma for up to 3 h”.
